What was measured:
[1] = oral administration of RTV 15 minutes prior to Kyt-36; from U.S. Pat. No. 9,758,473; cited from earlier work
cathepsin V = cathepsin V (Homo sapiens, UniProt O60911); experiment: cathepsin screen; type: biochemical
cathepsin B = cathepsin B (Homo sapiens, UniProt P07858); experiment: cathepsin screen; type: biochemical
Protocol: The method can also be used to assay enzymes including Kgp, trypsin, and cathepsins such as cathepsin B. For Kgp, the substrate can be succinyl-Ala-Phe-Lys-AMC. For trypsin, the buffer can contain 10 mM Tris and 10 mM CaCl2 (pH 8.0), and the substrate can be Z-Gly-Gly-Arg-AMC. For cathepsin B, the buffer can contain 50 mM sodium phosphate, 1 mM EDTA, and 10 mM 2-mercaptoethanol (pH 6.25), and the substrate can be Z-Arg-Arg-AMC.

cathepsin L = cathepsin L (Homo sapiens, UniProt P07711); experiment: cathepsin screen; type: biochemical
cathepsin K = biological target: T1, cathepsin K (Homo sapiens, UniProt P43235); experiment: cathepsin screen; type: biochemical
T1 sequence (P43235 115-329): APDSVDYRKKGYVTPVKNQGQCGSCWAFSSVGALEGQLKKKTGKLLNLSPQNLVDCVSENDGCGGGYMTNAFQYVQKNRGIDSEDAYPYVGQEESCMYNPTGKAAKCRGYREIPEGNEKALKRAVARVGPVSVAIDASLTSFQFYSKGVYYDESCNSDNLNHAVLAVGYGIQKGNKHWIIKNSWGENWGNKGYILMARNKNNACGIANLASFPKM

cathepsin F = biological target: T2, cathepsin F (Homo sapiens, UniProt Q9UBX1); experiment: cathepsin screen; type: biochemical
T2 sequence (Q9UBX1 271-484): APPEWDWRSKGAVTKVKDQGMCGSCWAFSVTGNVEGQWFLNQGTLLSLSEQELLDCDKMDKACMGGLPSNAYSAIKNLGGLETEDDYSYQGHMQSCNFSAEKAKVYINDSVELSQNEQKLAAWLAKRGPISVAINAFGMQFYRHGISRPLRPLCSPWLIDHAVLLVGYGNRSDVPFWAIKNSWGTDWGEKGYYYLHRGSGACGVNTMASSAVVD

cathepsin H = biological target: T3, cathepsin H (Homo sapiens, UniProt P09668); experiment: cathepsin screen; type: biochemical
T3 sequence (P09668 98-335): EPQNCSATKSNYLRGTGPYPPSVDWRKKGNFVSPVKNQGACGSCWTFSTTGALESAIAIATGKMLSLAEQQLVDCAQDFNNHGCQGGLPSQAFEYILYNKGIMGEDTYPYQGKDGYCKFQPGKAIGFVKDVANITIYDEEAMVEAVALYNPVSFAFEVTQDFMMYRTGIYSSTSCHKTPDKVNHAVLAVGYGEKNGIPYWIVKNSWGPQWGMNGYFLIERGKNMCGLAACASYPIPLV

cathepsin S = cathepsin S (Homo sapiens, UniProt P25774); experiment: cathepsin screen; type: biochemical
Chain of cathepsin S (P25774 115-331): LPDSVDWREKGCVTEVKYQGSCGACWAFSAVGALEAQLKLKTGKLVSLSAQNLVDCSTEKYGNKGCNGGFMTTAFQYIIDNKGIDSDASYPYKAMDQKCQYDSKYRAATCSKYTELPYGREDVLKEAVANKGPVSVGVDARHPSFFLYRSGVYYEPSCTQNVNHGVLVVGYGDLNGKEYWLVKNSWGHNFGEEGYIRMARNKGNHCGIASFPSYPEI

Chain of cathepsin L (P07711 114-333): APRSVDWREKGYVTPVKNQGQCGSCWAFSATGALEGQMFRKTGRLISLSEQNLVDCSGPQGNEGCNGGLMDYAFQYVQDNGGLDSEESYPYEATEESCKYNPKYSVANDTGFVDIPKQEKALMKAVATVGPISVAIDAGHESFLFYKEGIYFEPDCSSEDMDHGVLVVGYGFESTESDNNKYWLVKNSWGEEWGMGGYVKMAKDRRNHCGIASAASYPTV
Chain of cathepsin V (O60911 114-334): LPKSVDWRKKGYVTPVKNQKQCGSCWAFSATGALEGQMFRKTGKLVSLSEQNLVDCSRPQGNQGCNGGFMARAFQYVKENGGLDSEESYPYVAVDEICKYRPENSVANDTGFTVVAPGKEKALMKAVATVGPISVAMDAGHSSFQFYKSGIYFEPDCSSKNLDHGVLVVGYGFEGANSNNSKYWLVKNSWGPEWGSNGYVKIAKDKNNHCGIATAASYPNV

SMILES: CN(NC(=O)CC[C@H](NC(=O)OCc1ccccc1)C(=O)N[C@@H](CCCCN)C(=O)C(=O)NCc1ccccc1)c1ccccc1 [Kyt-36]
- half-life [1]: increases the half-life

SMILES: COC(C)(C)C(=O)N[C@@H](CCCNC(=N)N)C(=O)COC(C(F)(F)F)C(F)(F)F [Compound 1, (S)-N-(6-guanidino-1-((1,1,1,3,3,3-hexafluoropropan-2-yl)oxy)-2-oxohexan-3-yl)-2-methoxy-2-methylpropanamide]
- IC50 (cathepsin V): > 10 µM
- IC50 (cathepsin B): > 10 µM
- IC50 (cathepsin L): > 10 µM
- IC50 (cathepsin K): > 10 µM
- IC50 (cathepsin F): > 10 µM
- IC50 (cathepsin H): > 10 µM
- IC50 (cathepsin S): > 10 µM
